Patent publication US9927437B2, “Treating neurodegenerative disease” (THE BRIGHAM AND WOMEN'S HOSPITAL, INC., priority 2013, dated 2018)

Experiments:
[1] = system: microglia and CNS-infiltrating monocytes; test: mRNA expression in microglia and CNS-infiltrating monocytes from EAE NOD mice; type: in vivo, mouse
Source text: FIGS. 5a-m. B4GALT6 in astrocytes regulates the activation of microglia and CNS-infiltrating monocytes. (a) Heatmap depicting mRNA expression, as determined by nCounter Nanostring analysis, in microglia from naïve or EAE NOD mice treated with PDMP or vehicle. Representative data of three independent experiments. Statistical analysis by Student's t-test. (b) qPCR analysis of ccl5, il1b, opn, nos2, cd40, and H2-Aa gene expression relative to Gapdh. (c, d) Mean normalized expression of genes associated with M1- or M2-phenotype in microglia (Table 3) (c) and Ly6C^high monocytes (d). Statistical analysis by Student's t-test. (e-h) primary microglia were pre-treated with PDMP, LacCer, or vehicle, followed by activation with LPS/IFNγ for 6 h or left un-treated (control) as in (FIG. 3a). mRNA expression was determined by nCounter Nanostring analysis (e, g), and microglial viability was determined (f, h). Representative data of five independent experiments. (i) Mixed glia cultures were treated with mild trypsin/EDTA (T/E) to remove the astrocyte monolayer leaving only the microglia attached to the plate, or left un-treated. Cultures were pre-treated with PDMP, LacCer or vehicle, and activated with LPS/IFNγ for 6 h. Following activation, both cultures were washed, and incubated with mild T/E to remove the astrocytes; thus, leaving only the microglia (MG) attached to the plates. RNA was harvested from microglia treated in the absence [MG (pure)] or presence [MG (mixed)] of astrocytes and gene expression was analyzed by qPCR for the expression ccl2, ccl5 and nos2 relative to gapdh. Data present the relative effect of PDMP (left panel) or LacCer (right panel) pre-treatment on LPS/IFNγ-triggered gene induction, from five independent experiments. Statistical analysis by Student's t-test. (j) Mixed glia were pre-treated with indicated blocking antibodies or appropriate isotype controls (25 μg/ml) and LacCer […] or vehicle control, and then activated with LPS/IFNγ for 6 h. Microglia were isolated as in (i), and microglial-nos2 expression was determined by qRT relative to gapdh and presented as in (i). Representative data of three independent experiments. (k) ChIP analysis of the interaction of NF-κB, and IRF-1 with the csf2 promoter in primary cultured astrocytes. (l, m) Expression csf2 in astrocytes (l) and nos2 in microglial cells (m) isolated form the CNS of chronic EAE NOD mice, 10 days after the i.c.v. injection of astrocytes-specific shRNA lentivirus as in (FIG. 3j). Data from two independent experiments. For all data, means and s.e.m. are shown. *P<0.05, **P<0.01, ***P<0.001 and n.s. not significant.
Mononuclear cells were isolated from the CNS as previously described^50 with minor modifications. […]

Ly6C^high monocytes = test: Response of Ly6C^high monocytes to LPS/IFNγ (nCounter); type: cell-based, mouse; conditions: LPS/IFNγ 6 h

Compound | nos2 expression in microglia ([1]; chronic NOD EAE, 10 days after i.c.v. shRNA lentivirus) | monocyte response to LPS/IFNγ stimulation (Ly6C^high monocytes) | M1-associated genes in microglia and CNS-infiltrating monocytes ([1]; NOD EAE) | M2-associated genes in microglia and CNS-infiltrating monocytes ([1]; NOD EAE) | expression of genes associated with microglia activation ([1]; microglia from NOD EAE progressive phase)
shB4galt6: lentivirus-delivered shRNA against b4galt6 (TRCN0000334278; SEQ ID NO:3) (guide CGATGGACTGAACAATTTATTCTCGAGAATAAATTGTTCAGTCCACG) | decreased nos2 expression |  |  |  | 
CCCCCCCCCC(=O)N[C@H](CN1CCOCC1)[C@H](O)c1ccccc1 [PDMP, D-threo-1-phenyl-2-decanoylamino-3-morpholino-1-propanol] |  | did not affect | significant down regulation | up-regulation | reduced the expression
lactosylceramide [LacCer] |  | did not affect |  |  | 
